Source: patent US11548888B2, “KRas G12C inhibitors” (Mirati Therapeutics, Inc., priority 2019, dated 2023)

molecular target: T1, KRas G12C (Homo sapiens, UniProt P01116, G12C); assay: Inhibition of KRas G12C-dependent cell growth: Phospho-ERK in NCI-H358 cells; type: cell-based; details: NCI-H358 cells expressing KRas G12C; Phospho-ERK (Thr202/Tyr204) normalized to GAPDH; 3 hours compound; 4 parameter fit
T1 construct: NCI-H358 cells (ATCC CRL-5807) express KRas G12C
Method: The cellular inhibition of KRAs G12C by exemplary compounds of the present invention was determined by measuring the amount of a downstream marker of KRas activity, phosphorylated ERK (“Phospho-ERK”).
NCI-H358 cells (ATCC CRL-5807) express KRas G12C and were grown in RPMI medium supplemented with 10% fetal bovine serum, penicillin/streptomycin and 10 mM HEPES. Cells were plated in poly-D-Lysine coated 96-well plates at a concentration of 50,000 cells/well and allowed to attach for 8-12 hours. Diluted compounds were then added at a final concentration of 0.5% DMSO. After 3 hours, the medium was removed, 150 μL of 4% formaldehyde was added and the plates were incubated for 20 minutes. The plates were washed with PBS, and permeabilized using 150 μL of ice cold 100% methanol for 10 minutes. Non-specific antibody binding to the plates was blocked using 100 μL Licor Blocking Buffer (Li-Cor Biotechnology, Lincoln Nebr.) for 1 hour at room temperature. Positive control samples and samples lacking cells were parallel processed with test samples as standards.
The amount Phospho-ERK was determined using an antibody specific for the phosphorylated form of ERK and compared to the amount of GAPDH. Primary antibodies used for detection were added as follows: Phospho-ERK (Cell Signaling cs9101) diluted 1:500 and GAPDH (Millipore MAB374) diluted 1:5000 in Licor block+0.05% Tween 20. The plates were incubated for 2 hours at room temperature. The plates were washed with PBS+0.05% Tween 20.
Secondary antibodies used to visualize primary antibodies were added as follows: Anti-rabbit-680 diluted 1:1000 and Anti-mouse-800 diluted 1:1000 in Licor Block+0.05% Tween 20 and incubated for 1 hour at room temperature. The plates were washed with PBS+0.05% Tween 20. A 100 μL aliquot of PBS was added to each well and the plates were read on a LICOR AERIUS plate reader.
The pERK(Thr202/Tyr204) signal was normalized with the GAPDH signal and percent of DMSO control values were calculated. IC50 values were generated using a 4 parameter fit of the dose response curve.

T1 sequence (P01116 1-188 isoform P01116-2 G12C): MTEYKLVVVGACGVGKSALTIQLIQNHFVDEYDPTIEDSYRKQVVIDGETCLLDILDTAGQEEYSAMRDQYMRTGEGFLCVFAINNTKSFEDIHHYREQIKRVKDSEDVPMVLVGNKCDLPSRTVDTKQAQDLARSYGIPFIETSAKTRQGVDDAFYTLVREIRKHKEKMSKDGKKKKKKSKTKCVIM

Going from `C=CC(=O)N1CCN(c2ncnc3c(F)c(-c4c(O)ccc5ccccc45)ncc23)CC1` [Example 225] to `C=CC(=O)N1CCN(c2ncnc3c(F)c(-c4cccc5cc(C)ccc45)ncc23)CC1` [Example 302, 1-(4-(8-fluoro-7-(6-methylnaphthalen-1-yl)pyrido[4,3-d]pyrimidin-4-yl)piperazin-1-yl)prop-2-en-1-one], the IC50 rises from 4930 nM to 10000 nM (2-fold). The first is the more potent here.

First: C=C(F)C(=O)N1CCN(c2nc(OC3CCN(C4CCOCC4)CC3)nc3c(F)c(-c4cccc5cccc(Cl)c45)ncc23)C[C@@H]1CC#N [Example 64]
Second: C=C(F)C(=O)N1CCN(c2nc(OCC3CN(C)CCO3)nc3c(F)c(-c4cccc5cccc(Cl)c45)ncc23)C[C@@H]1CC#N (stereo partly shown) [Example 65]
The IC50 of the first is 10-fold higher: 376 nM for the first, 36 nM for the second.

First: C=CC(=O)N1CC[C@@H]2[C@H]1CN2c1nc(N(C)C)nc2c(F)c(-c3cccc4ccc(F)c(Cl)c34)ncc12 [Example 269]
Second: C=CC(=O)N1CC[C@@H]2[C@H]1CN2c1nc(N)nc2c(F)c(-c3cccc4ccc(F)c(Cl)c34)ncc12 [Example 282]
The IC50 of the first is 16-fold higher: 4490 nM for the first, 287 nM for the second.

First: C=CC(=O)N1CCN(c2nc(OC[C@@H]3CCCN3C)nc3c(F)c(-c4c(C)ccc5[nH]ncc45)ncc23)CC1 [Example 80]
Second: C=CC(=O)N1CCN(c2nc(OC[C@@H]3CCCN3C)nc3c(F)c(-c4cccc5ccc(F)c(Cl)c45)ncc23)[C@H](C)C1 [Example 155]
The IC50 of the first is 4.3-fold higher: 2520 nM for the first, 585 nM for the second.

First: C=C(F)C(=O)N1CCN(c2nc(OC[C@@H]3C[C@@H](F)CN3C)nc3c(F)c(-c4cccc5cccc(C)c45)ncc23)C[C@@H]1CC#N [Example 14, 2-[(2S)-4-[8-fluoro-2-[[(2S,4R)-4-fluoro-1-methyl-pyrrolidin-2-yl]methoxy]-7-(8-methyl-1-naphthyl)pyrido[4,3-d]pyrimidin-4-yl]-1-(2-fluoroprop-2-enoyl)piperazin-2-yl]acetonitrile]
Second: C=C(F)C(=O)N1CCN(c2nc(OC[C@@H]3C[C@@H](F)CN3C)nc3c(F)c(-c4cccc5ccc(F)c(Cl)c45)ncc23)C[C@@H]1CC#N [Example 126]
The IC50 of the first is 7.9-fold higher: 119 nM for the first, 15 nM for the second.

First: C=CC(=O)N1CCN(c2nc(OC[C@@H]3CCCN3C)nc3c(F)c(-c4cccc5ccc(F)c(Cl)c45)ncc23)[C@@H](C)C1 [Example 119]
Second: C=CC(=O)N1CC[C@@H]2[C@H]1CN2c1nc(OC[C@@H]2CC(F)(F)CN2C)nc2c(F)c(-c3cccc4ccc(F)c(Cl)c34)ncc12 [Example 262]
The IC50 of the first is 2.9-fold lower: 39 nM for the first, 114 nM for the second.

Going from `C=CC(=O)N1CC[C@@H]2[C@H]1CN2c1nc(OCC23CCCN2CCC3)nc2c(F)c(-c3cccc4ccc(F)c(Cl)c34)ncc12` [Example 227] to `C=CC(=O)N1CC[C@@H]2[C@H]1CN2c1nc(OCC)nc2c(F)c(-c3cccc4ccc(F)c(Cl)c34)ncc12` [Example 268], the IC50 rises from 5 nM to 1130 nM (230-fold). The first is the more potent here.

First: C=C(F)C(=O)N1CCN(c2nc(OC[C@@H]3CC(F)(F)CN3C(C)C)nc3c(F)c(-c4cccc5ccc(F)c(Cl)c45)ncc23)C[C@@H]1CC#N [Example 118]
Second: C=C(F)C(=O)N1CCN(c2nc(OC[C@@H]3CCCN3C(C)C)nc3c(F)c(-c4cccc5ccc(F)c(Cl)c45)ncc23)C[C@@H]1CC#N [Example 121]
The IC50 of the first is 5.2-fold higher: 329 nM for the first, 63 nM for the second. The second is the more potent here.

Going from `C=C(F)C(=O)N1CCN(c2nc(OCCCN3C[C@@H]4C[C@H]3CO4)nc3c(F)c(-c4cncc5cccc(Cl)c45)ncc23)C[C@@H]1CC#N` [Example 37, 2-[(2S)-4-[7-(5-chloro-4-isoquinolyl)-8-fluoro-2-[3-[(1S,4S)-2-oxa-5-azabicyclo[2.2.1]heptan-5-yl]propoxy]pyrido[4,3-d]pyrimidin-4-yl]-1-(2-fluoroprop-2-enoyl)piperazin-2-yl]acetonitrile] to `N#CC[C@H]1CN(c2nc(OCCCN3C[C@@H]4C[C@H]3CO4)nc3c(F)c(-c4cncc5cccc(Cl)c45)ncc23)CCN1C(=O)/C=C/CF` [Example 48, 2-[(2S)-4-[7-(5-chloro-4-isoquinolyl)-8-fluoro-2-[3-[(1S,4S)-2-oxa-5-azabicyclo[2.2.1]heptan-5-yl]propoxy]pyrido[4,3-d]pyrimidin-4-yl]-1-[(E)-4-fluorobut-2-enoyl]piperazin-2-yl]acetonitrile], the IC50 rises from 168 nM to 270 nM (1.6-fold).

`C=CC(=O)N1CCN(c2ncnc3c(F)c(-c4cccc5cc(F)ccc45)ncc23)CC1` [Example 258] and `C=CC(=O)N1CCN(c2ncnc3c(F)c(-c4cccc5cc(Cl)ccc45)ncc23)CC1` [Example 257] are the same in IC50: 10000 nM for the first, 10000 nM for the second.

`C=C(F)C(=O)N1CCN(c2nc(OC[C@@H]3CC4CCN3C4)nc3c(F)c(-c4cccc5ccc(F)c(Cl)c45)ncc23)C[C@@H]1CC#N` (stereo partly shown) [Example 244] and `C=C(F)C(=O)N1CCN(c2nc(OC[C@@H]3CN(C)C[C@@H]3F)nc3c(F)c(-c4cccc5ccc(F)c(Cl)c45)ncc23)C[C@@H]1CC#N` [Example 194] are within 1.5-fold of each other in IC50: 88 nM for the first, 64 nM for the second.

Compared with `C=CC(=O)N1CCN(c2nc(OC[C@@H]3CCCN3C)nc3cc(-c4cccc5ccccc45)ncc23)C[C@@H]1CC#N` [Example 5, 2-[(2S)-4-[2-[[(2S)-1-methylpyrrolidin-2-yl]methoxy]-7-(1-naphthyl)pyrido[4,3-d]pyrimidin-4-yl]-1-prop-2-enoyl-piperazin-2-yl]acetonitrile], `C=C(F)C(=O)N1CCN(c2nc(OC[C@@H]3CCCN3C)nc3c(Cl)c(-c4cccc5cccc(C)c45)ncc23)C[C@@H]1CC#N` [Example 32, 2-[(2S)-4-[8-chloro-7-(8-methyl-1-naphthyl)-2-[[(2S)-1-methylpyrrolidin-2-yl]methoxy]pyrido[4,3-d]pyrimidin-4-yl]-1-(2-fluoroprop-2-enoyl)piperazin-2-yl]acetonitrile] is 3-fold higher in IC50: 45 nM for the first, 137 nM for the second. The first is the more potent here.

First: N#CC[C@H]1CN(c2ncnc3c(F)c(-c4cccc5ccc(F)c(Cl)c45)ncc23)CCN1C(=O)/C=C/CF [Example 112]
Second: C=CC(=O)N1CCN(c2ncnc3c(F)c(-c4cccc5ccc(F)c(Cl)c45)ncc23)C[C@@H]1CC#N [Example 109]
The IC50 of the first is 10-fold higher: 218 nM for the first, 21 nM for the second.

Compared with `COC/C=C/C(=O)N1CCN(c2nc(OC[C@@H]3C[C@@H](OC)CN3C)nc3c(F)c(-c4cccc5cccc(Cl)c45)ncc23)C[C@@H]1CC#N` [Example 62, 2-((S)-4-(7-(8-chloronaphthalen-1-yl)-8-fluoro-2-(((2S,4R)-4-methoxy-1-methylpyrrolidin-2-yl)methoxy)pyrido[4,3-d]pyrimidin-4-yl)-1-((E)-4-methoxybut-2-enoyl)piperazin-2-yl)acetonitrile], `C=CC(=O)N1CCN(c2ncnc3c(F)c(-c4cccc5cccc(Cl)c45)ncc23)C[C@@H]1CC#N` [Example 108] is 2.1-fold higher in IC50: 18 nM for the first, 37 nM for the second. The first is the more potent here.

Compared with `C=CC(=O)N1CCN(c2ncnc3c(F)c(-c4c(N)c(Cl)cc(Cl)c4F)ncc23)C[C@@H]1CC#N` [Example 243], `C=CC(=O)N1CCN(c2nc(N3CCC3)nc3c(F)c(-c4cccc5ccc(F)c(Cl)c45)ncc23)C[C@@H]1CC#N` [Example 187] is 16-fold lower in IC50: 1200 nM for the first, 74 nM for the second.

`CC#CC(=O)N1CCN(c2ncnc3c(F)c(-c4cccc5ccc(F)c(Cl)c45)ncc23)CC1` [Example 201] and `C/C=C/C(=O)N1CC[C@@H]2[C@H]1CN2c1ncnc2c(F)c(-c3cccc4ccc(F)c(Cl)c34)ncc12` [Example 260] are the same in IC50: 10000 nM for the first, 10000 nM for the second.

Going from `C=C(F)C(=O)N1CCN(c2nc(OCC3CN(C)CC3(F)F)nc3c(F)c(-c4cccc5ccc(F)c(Cl)c45)ncc23)C[C@@H]1CC#N` (single isomer, unassigned) [Example 180] to `C=C(F)C(=O)N1CCN(c2nc(OC[C@@H]3CCCN3C)nc3c(F)c(-c4cccc5cnn(C)c45)ncc23)C[C@@H]1CC#N` [Example 84], the IC50 rises from 362 nM to 765 nM (2.1-fold). The first is the more potent here.

First: C=CC(=O)N1CC[C@@H]2[C@H]1CN2c1ncnc2c(F)c(-c3cccc4cccc(CC)c34)ncc12 [Example 303, 1-((1R, 5R)-6-(7-(8-ethylnaphthalen-1-yl)-8-fluoropyrido[4,3-d]pyrimidin-4-yl)-2,6-diazabicyclo[3.2.0]heptan-2-yl)prop-2-en-1-one]
Second: C#Cc1c(F)ccc2cccc(-c3ncc4c(N5C[C@@H]6[C@H]5CCN6C(=O)C(=C)F)ncnc4c3F)c12 [Example 299, 1-((1R,5R)-6-(7-(8-ethynyl-7-fluoronaphthalen-1-yl)-8-fluoropyrido[4,3-d]pyrimidin-4-yl)-2,6-diazabicyclo[3.2.0]heptan-2-yl)-2-fluoroprop-2-en-1-one]
The IC50 of the first is 1.9-fold lower: 714 nM for the first, 1330 nM for the second. The first is the more potent here.

Work on `C#Cc1cccc2cc(O)cc(-c3ncc4c(N5C[C@@H]6[C@H]5CCN6C(=O)C=C)nc(OC[C@@H]5CCCN5C)nc4c3F)c12` [Example 292, 1-((1R,5R)-6-(7-(8-ethynyl-3-hydroxynaphthalen-1-yl)-8-fluoro-2-(((S)-1-methylpyrrolidin-2-yl)methoxy)pyrido[4,3-d]pyrimidin-4-yl)-2,6-diazabicyclo[3.2.0]heptan-2-yl)prop-2-en-1-one] yielded an IC50 of 20 nM.
